One test has as its target T1, EGFR (d746-750) (Homo sapiens, UniProt P00533, DEL746-750).
T1 construct: purchased SignalChem E10-122JG
In words: Biochemical EGFR inhibition assay (Caliper mobility shift), EGFR (d746-750). To be noted: read-out: Enz EGFR_Exon19-del746-750 IC50.

The target in a further test is T2, EGFR L858R (Homo sapiens, UniProt P00533, L858R).
T2 construct: purchased SignalChem E10-122BG
In words: Biochemical EGFR inhibition assay (Caliper mobility shift), EGFR L858R. To be noted: read-out: Enz EGFR_L858R IC50.

Test [1] addresses intracellular phosphorylation of EGFR (Tyr1068) in PC-9 cells (Ex19Del) (Homo sapiens, UniProt P00533, DEL746-750). In words: PC-9 pEGFR AlphaLISA assay. It counts as cell-based. As to conditions: 4 hours compound incubation, read-out: Ext pEGFR_PC-9 Ex19Del IC50. In general terms: Alpha assays give light when donor and acceptor beads are brought close together.
[2] abbreviates: 1.0 mM ATP or ATP Km, room temperature (25° C.).

As a reminder, the IC50 is the concentration that gives 50% inhibition.

Like-named read-outs stand apart in the source and are kept apart here. Where only a bound is given, the exact number is not on record here.

T2 sequence (P00533 25-1210 L858R): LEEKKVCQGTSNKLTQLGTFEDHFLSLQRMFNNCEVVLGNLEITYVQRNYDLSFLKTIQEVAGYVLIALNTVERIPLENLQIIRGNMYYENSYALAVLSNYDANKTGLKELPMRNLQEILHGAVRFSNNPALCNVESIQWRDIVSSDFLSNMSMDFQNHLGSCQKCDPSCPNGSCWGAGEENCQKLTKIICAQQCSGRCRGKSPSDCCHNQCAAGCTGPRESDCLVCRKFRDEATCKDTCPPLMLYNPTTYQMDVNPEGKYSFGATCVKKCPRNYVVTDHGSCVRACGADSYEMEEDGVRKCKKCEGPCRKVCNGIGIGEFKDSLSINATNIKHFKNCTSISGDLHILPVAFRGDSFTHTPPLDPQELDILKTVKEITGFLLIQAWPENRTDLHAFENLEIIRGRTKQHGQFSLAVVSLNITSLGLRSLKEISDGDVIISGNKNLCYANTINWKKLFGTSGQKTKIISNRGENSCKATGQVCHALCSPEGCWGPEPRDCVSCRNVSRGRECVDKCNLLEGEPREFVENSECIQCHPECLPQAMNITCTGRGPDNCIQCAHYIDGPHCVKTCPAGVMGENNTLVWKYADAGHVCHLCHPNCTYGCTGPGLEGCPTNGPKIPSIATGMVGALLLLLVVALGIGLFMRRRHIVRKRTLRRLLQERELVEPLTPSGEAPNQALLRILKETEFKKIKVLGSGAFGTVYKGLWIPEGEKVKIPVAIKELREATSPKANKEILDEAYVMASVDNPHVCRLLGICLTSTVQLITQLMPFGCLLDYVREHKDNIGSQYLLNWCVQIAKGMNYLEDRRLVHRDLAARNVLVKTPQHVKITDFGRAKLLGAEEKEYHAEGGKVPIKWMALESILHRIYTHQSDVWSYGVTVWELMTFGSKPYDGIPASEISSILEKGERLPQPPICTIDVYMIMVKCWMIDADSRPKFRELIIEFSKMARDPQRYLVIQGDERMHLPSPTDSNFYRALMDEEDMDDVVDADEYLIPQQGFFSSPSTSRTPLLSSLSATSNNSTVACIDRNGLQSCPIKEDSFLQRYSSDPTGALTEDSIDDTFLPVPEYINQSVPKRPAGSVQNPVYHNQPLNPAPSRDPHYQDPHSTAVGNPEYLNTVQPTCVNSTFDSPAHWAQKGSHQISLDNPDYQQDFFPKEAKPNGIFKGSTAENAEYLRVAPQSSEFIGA
Sequence of intracellular phosphorylation of EGFR (Tyr1068) in PC-9 cells (Ex19Del) (P00533 with tags, fused parts or gaps DEL746-750): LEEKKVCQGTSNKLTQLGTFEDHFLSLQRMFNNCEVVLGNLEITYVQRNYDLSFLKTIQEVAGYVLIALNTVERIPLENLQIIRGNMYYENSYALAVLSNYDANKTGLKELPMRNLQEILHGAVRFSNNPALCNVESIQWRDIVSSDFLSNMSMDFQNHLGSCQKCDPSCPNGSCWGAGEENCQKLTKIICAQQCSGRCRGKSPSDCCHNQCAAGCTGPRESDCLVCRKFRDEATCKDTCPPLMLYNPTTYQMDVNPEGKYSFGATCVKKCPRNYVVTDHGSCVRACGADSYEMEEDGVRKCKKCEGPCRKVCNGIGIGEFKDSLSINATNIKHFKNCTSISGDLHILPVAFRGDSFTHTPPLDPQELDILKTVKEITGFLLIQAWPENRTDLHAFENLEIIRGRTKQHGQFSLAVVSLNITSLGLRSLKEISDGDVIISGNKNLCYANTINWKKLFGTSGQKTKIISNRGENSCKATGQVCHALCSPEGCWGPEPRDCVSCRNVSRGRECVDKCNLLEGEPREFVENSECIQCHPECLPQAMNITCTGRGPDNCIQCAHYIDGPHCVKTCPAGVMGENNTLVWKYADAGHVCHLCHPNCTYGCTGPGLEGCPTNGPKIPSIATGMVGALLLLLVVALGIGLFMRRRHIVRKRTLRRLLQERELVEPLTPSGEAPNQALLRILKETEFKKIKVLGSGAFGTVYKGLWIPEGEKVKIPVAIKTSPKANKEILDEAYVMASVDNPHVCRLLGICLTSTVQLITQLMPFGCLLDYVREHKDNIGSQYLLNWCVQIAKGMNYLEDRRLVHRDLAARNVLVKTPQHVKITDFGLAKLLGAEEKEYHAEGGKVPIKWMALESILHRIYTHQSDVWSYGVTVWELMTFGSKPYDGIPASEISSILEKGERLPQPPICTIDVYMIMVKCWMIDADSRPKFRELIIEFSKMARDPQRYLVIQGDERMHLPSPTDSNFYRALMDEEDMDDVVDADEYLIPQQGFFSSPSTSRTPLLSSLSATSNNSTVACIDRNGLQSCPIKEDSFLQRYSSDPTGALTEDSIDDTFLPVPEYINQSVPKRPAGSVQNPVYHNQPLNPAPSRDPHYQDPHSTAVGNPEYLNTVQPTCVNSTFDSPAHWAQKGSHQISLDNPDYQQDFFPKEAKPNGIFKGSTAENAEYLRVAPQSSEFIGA
T1 sequence (P00533 with tags, fused parts or gaps DEL746-750 limits assumed): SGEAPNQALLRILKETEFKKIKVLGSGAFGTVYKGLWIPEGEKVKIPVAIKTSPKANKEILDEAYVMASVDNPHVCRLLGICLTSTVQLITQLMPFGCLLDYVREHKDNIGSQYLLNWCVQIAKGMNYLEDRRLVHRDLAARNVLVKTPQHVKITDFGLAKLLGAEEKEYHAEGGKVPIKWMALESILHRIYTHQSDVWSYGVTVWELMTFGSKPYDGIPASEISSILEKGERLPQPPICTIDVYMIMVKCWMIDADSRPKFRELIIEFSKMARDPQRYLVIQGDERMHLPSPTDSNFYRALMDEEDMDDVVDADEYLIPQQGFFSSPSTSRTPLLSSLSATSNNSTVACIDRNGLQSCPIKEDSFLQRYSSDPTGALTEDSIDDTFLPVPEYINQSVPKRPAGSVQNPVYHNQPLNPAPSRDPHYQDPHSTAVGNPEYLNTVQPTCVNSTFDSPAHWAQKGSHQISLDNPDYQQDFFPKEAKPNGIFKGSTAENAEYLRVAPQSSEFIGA

As to `C[C@H](Oc1cc(-c2cnn(C)c2)cc2ncnc(Nc3ccc4ncccc4c3F)c12)[C@@H]1CCCN1C` (single isomer, unassigned) [Example 145], the IC50 was 10.1 to 50 nM at EGFR (d746-750) (setting [2]), 10.1 to 50 nM on EGFR L858R (setting [2]) and greater than 50.1 nM in test [1].
Take `C[C@H](CN(C)C)Oc1cc(N2CC3CC(C2)N3)cc2ncnc(Nc3ccc4ncccc4c3F)c12` [Example 150, 7-(3,6-diazabicyclo[3.1.1]heptan-3-yl)-5-(((R)-1-(dimethylamino)propan-2-yl)oxy)-N-(5-fluoroquinolin-6-yl)quinazolin-4-amine]: the IC50 (on EGFR (d746-750); on EGFR L858R; in test [1]) was greater than 50.1 nM in each case.
For the compound `CC(=O)N1CC2(C1)CN(c1cc(O[C@H](C)CN(C)C)c3c(Nc4ccc5ncccc5c4F)ncnc3c1)C2` [Example 154, (R)-1-(6-(5-((1-(dimethylamino)propan-2-yl)oxy)-4-((5-fluoroquinolin-6-yl)amino)quinazolin-7-yl)-2,6-diazaspiro[3.3]heptan-2-yl)ethan-1-one], the IC50 on EGFR (d746-750) is less than 10 nM; on EGFR L858R, less than 10 nM; in test [1] it was no more than 10 nM.
Take `C[C@H](CN(C)C)Oc1cc(-c2cnn(C)c2)cc2ncnc(Nc3ccc4ncc(O)cc4c3F)c12` [Example 116, (R)-6-((5-((1-(dimethylamino)propan-2-yl)oxy)-7-(1-methyl-1H-pyrazol-4-yl)quinazolin-4-yl)amino)-5-fluoroquinolin-3-ol]: the IC50 at EGFR (d746-750) was less than 10 nM; at EGFR L858R, less than 10 nM; in test [1], greater than 50.1 nM.
As for `C[C@H](CN(C)C)Oc1cc(N2CCOCC2)cc2ncnc(Nc3ccc4ncccc4c3F)c12` [Example 65, (R)-5-((1-(dimethylamino)propan-2-yl)oxy)-N-(5-fluoroquinolin-6-yl)-7-morpholinoquinazolin-4-amine], the IC50 on EGFR (d746-750) is less than 10 nM; on EGFR L858R it was 10.1 to 50 nM; in test [1] it was no more than 10 nM.
As to `C[C@@H](Oc1cc(-c2cnn(C)c2)cc2ncnc(Nc3ccc4ncccc4c3F)c12)C1COC1` (single isomer, unassigned) [Example 1, (R)—N-(5-fluoroquinolin-6-yl)-7-(1-methyl-1H-pyrazol-4-yl)-5-(1-(oxetan-3-yl)ethoxy)quinazolin-4-amine or (S)—N-(5-fluoroquinolin-6-yl)-7-(1-methyl-1H-pyrazol-4-yl)-5-(1-(oxetan-3-yl)ethoxy)quinazolin-4-amine], the IC50 at EGFR (d746-750) (setting [2]) is less than 10 nM; on EGFR L858R (setting [2]), less than 10 nM; in test [1], no more than 10 nM.
As to `C[C@H](CN(C)C)Oc1cc(-c2cnn(C)c2)cc2ncnc(Nc3cc(F)c4ncccc4c3F)c12` [Example 10, (R)—N-(5,8-difluoroquinolin-6-yl)-5-((1-(dimethylamino)propan-2-yl)oxy)-7-(1-methyl-1H-pyrazol-4-yl)quinazolin-4-amine], the IC50 is less than 10 nM at EGFR (d746-750), less than 10 nM at EGFR L858R and no more than 10 nM in test [1].
With `C[C@H](CN(C)C)Oc1cc(N2CC3(COC3)C2)cc2ncnc(Nc3c(F)cc4ncccc4c3F)c12` [Example 39, (R)—N-(5,7-difluoroquinolin-6-yl)-5-((1-(dimethylamino)propan-2-yl)oxy)-7-(2-oxa-6-azaspiro[3.3]heptan-6-yl)quinazolin-4-amine], the IC50 was less than 10 nM at EGFR (d746-750), less than 10 nM at EGFR L858R and no more than 10 nM in test [1].
Consider `[2H]c1ccc2c(F)c(Nc3ncnc4cc(-c5cnn(C)c5)cc(O[C@H](C)CN(C)C)c34)ccc2n1` [Example 155, (R)-5-((1-(dimethylamino)propan-2-yl)oxy)-N-(5-fluoroquinolin-6-yl-2-d)-7-(1-methyl-1H-pyrazol-4-yl)quinazolin-4-amine], for which the IC50 at EGFR (d746-750) was less than 10 nM; on EGFR L858R it was less than 10 nM; in test [1] it was no more than 10 nM.
As to `C[C@H](CN(C)C)Oc1cc(N2CC[C@H](C(C)(C)O)C2)cc2ncnc(Nc3c(F)cc4ncccc4c3F)c12` [Example 88, 2—((S)-1-(4-((5,7-difluoroquinolin-6-yl)amino)-5-(((R)-1-(dimethylamino)propan-2-yl)oxy)quinazolin-7-yl)pyrrolidin-3-yl)propan-2-ol], the half-maximal inhibitory concentration (IC50) is less than 10 nM at EGFR (d746-750), less than 10 nM at EGFR L858R and no more than 10 nM in test [1].
For `C[C@H](CN(C)C)Oc1cc(-c2cnn(C)c2)cc2ncnc(Nc3ccc4nc(O)ccc4c3F)c12` [Example 130, (R)-6-((5-((1-(dimethylamino)propan-2-yl)oxy)-7-(1-methyl-1H-pyrazol-4-yl)quinazolin-4-yl)amino)-5-fluoroquinolin-2-ol], the IC50 on EGFR (d746-750) is 10.1 to 50 nM; on EGFR L858R, greater than 50.1 nM; in test [1] it was greater than 50.1 nM.
Take `CN1CCC(Oc2cc(-c3cnn(C)c3)cc3ncnc(Nc4ccc5ncccc5c4F)c23)CC1` [Example 50, N-(5-fluoroquinolin-6-yl)-7-(1-methyl-1H-pyrazol-4-yl)-5-((1-methylpiperidin-4-yl)oxy)quinazolin-4-amine]: the IC50 is less than 10 nM at EGFR (d746-750), less than 10 nM at EGFR L858R and no more than 10 nM in test [1].
`COC1CCN(c2cc(O[C@H](C)CN(C)C)c3c(Nc4ccc5ncccc5c4F)ncnc3c2)C1` (mixture of isomers) [Example 86, 5—(((R)-1-(dimethylamino)propan-2-yl)oxy)-N-(5-fluoroquinolin-6-yl)-7-((R)-3-methoxypyrrolidin-1-yl)quinazolin-4-amine and 5-(((R)-1-(dimethylamino)propan-2-yl)oxy)-N-(5-fluoroquinolin-6-yl)-7-((S)-3-methoxypyrrolidin-1-yl)quinazolin-4-amine]: the figures for the IC50 (at EGFR (d746-750); on EGFR L858R; in test [1]) were less than 10 nM, less than 10 nM and no more than 10 nM, respectively.
Regarding `CO[C@@H]1CCN(c2cc(O[C@H](C)CN(C)C)c3c(Nc4ccc5ncccc5c4F)ncnc3c2)C1` (single isomer, unassigned) [Example 87a, 5-(((R)-1-(dimethylamino)propan-2-yl)oxy)-N-(5-fluoroquinolin-6-yl)-7-((R)-3-methoxypyrrolidin-1-yl)quinazolin-4-amine or 5-(((R)-1-(dimethylamino)propan-2-yl)oxy)-N-(5-fluoroquinolin-6-yl)-7-((S)-3-methoxypyrrolidin-1-yl)quinazolin-4-amine], the concentration for half-maximal inhibition (IC50) at EGFR (d746-750) (setting [2]) was less than 10 nM; on EGFR L858R (setting [2]), less than 10 nM; in test [1], no more than 10 nM.
As for `C[C@H](CN(C)C)Oc1cc(N2CCC(C)(O)CC2)cc2ncnc(Nc3ccc4ncccc4c3F)c12` [Example 94, (R)-1-(5-((1-(dimethylamino)propan-2-yl)oxy)-4-((5-fluoroquinolin-6-yl)amino)quinazolin-7-yl)-4-methylpiperidin-4-ol], the IC50 on EGFR (d746-750) was less than 10 nM; at EGFR L858R it was 10.1 to 50 nM; in test [1], 10.1 to 50 nM.
For `C[C@H](CN(C)C)Oc1cc(-c2cnn(C)c2)cc2ncnc(Nc3ccc4nnccc4c3)c12` [Example 11, (R)—N-(5-((1-(dimethylamino)propan-2-yl)oxy)-7-(1-methyl-1H-pyrazol-4-yl)quinazolin-4-yl)cinnolin-6-amine], the IC50 on EGFR (d746-750) is 10.1 to 50 nM; on EGFR L858R it was greater than 50.1 nM; in test [1], greater than 50.1 nM.
As to `C[C@@H](Oc1cc(N2CC[C@@H](C(C)(C)O)C2)cc2ncnc(Nc3ccc4ncccc4c3F)c12)C1COC1` [Example 63, 2—((R)-1-(4-((5-fluoroquinolin-6-yl)amino)-5-((R)-1-(oxetan-3-yl)ethoxy)quinazolin-7-yl)pyrrolidin-3-yl)propan-2-ol], the IC50 on EGFR (d746-750) is less than 10 nM; on EGFR L858R, less than 10 nM; in test [1] it was no more than 10 nM.
For the compound `COc1nn(C)cc1-c1cc(O[C@H](C)CN(C)C)c2c(Nc3ccc4ncccc4c3F)ncnc2c1` [Example 54, (R)-5-((1-(dimethylamino)propan-2-yl)oxy)-N-(5-fluoroquinolin-6-yl)-7-(3-methoxy-1-methyl-1H-pyrazol-4-yl)quinazolin-4-amine], the IC50 on EGFR (d746-750) is less than 10 nM; at EGFR L858R, less than 10 nM; in test [1], no more than 10 nM.
Regarding `C[C@H](CN(C)C)Oc1cc(-c2cnn(C)c2)cc2ncnc(Nc3ccc4ncccc4c3F)c12` [Example 6, (R)-5-((1-(dimethylamino)propan-2-yl)oxy)-N-(5-fluoroquinolin-6-yl)-7-(1-methyl-1H-pyrazol-4-yl)quinazolin-4-amine], the figures for the IC50 (at EGFR (d746-750); at EGFR L858R; in test [1]) were less than 10 nM, less than 10 nM and no more than 10 nM, respectively.
Consider `C[C@H](CN(C)C)Oc1cc(-c2cnn(C)c2)cc2ncnc(Nc3ccc4nnccc4c3F)c12` [Example 41, (R)—N-(5-((1-(dimethylamino)propan-2-yl)oxy)-7-(1-methyl-1H-pyrazol-4-yl)quinazolin-4-yl)-5-fluorocinnolin-6-amine], for which the half-inhibitory concentration (IC50) was 10.1 to 50 nM at EGFR (d746-750), greater than 50.1 nM on EGFR L858R and greater than 50.1 nM in test [1].
In the case of `C[C@@H](Oc1cc(-c2cnn(C)c2)cc2ncnc(Nc3ccc4ncccc4c3F)c12)C(CO)CCl` (stereo partly drawn) [Example 113, (3R)-2-(chloromethyl)-3-((4-((5-fluoroquinolin-6-yl)amino)-7-(1-methyl-1H-pyrazol-4-yl)quinazolin-5-yl)oxy)butan-1-ol], the IC50 was less than 10 nM on EGFR (d746-750), less than 10 nM at EGFR L858R and no more than 10 nM in test [1].

The record behind these values is patent US12662465B2, “EGFR inhibitors” (Blueprint Medicines Corporation, priority 2021, dated 2026).
